Source: article PMC11148772, “Inhibition of protein translational machinery in triple-negative breast cancer as a promising therapeutic strategy” (Cell Reports Medicine, 2024)

Experiments:
4T1 lung metastasis = assay: Orthotopic 4T1 model, lung metastasis; format: in vivo, mouse; conditions: orthotopic 4T1, 50 mg/kg, lung metastatic nodules counted
Text: Data S2. Effect of SU056 treatment on body weight, metastatic potential and pharmacokinetic profiling of SU056, related to Figure 2 and 3
Human, mouse and PDX models of TNBC were used for tumor xenograft studies. SU056 treatment was started when tumors reached around ~25-50 mm3 and continued until the experiment reached its 3-week endpoint. Body weight was monitored throughout the study to understand any change in dietary pattern. Body weights of A) MDA-MB-231, B) MDA-MB-468, C) 4T1, D) EMT6, E) CA1616-PDX-TNBC, F) CA1262-PDX-TNBC, G) MA2821-PDX-TNBC and H) SUTI151-PDX-TNBC over time. I) Tumor volume, J) Tumor weight and K) The bar graph represents lung metastatic nodules in 4T1 orthotopic models. L) Representative images of lungs at the end of the treatment cycle. M) Mice were treated with 20 mg/kg SU056 orally. Cmax (maximum serum concentration), Tmax (time to reach Cmax), and T1/2 (elimination half-life of compound). N) Human liver microsomes were used for the purpose of metabolic profiling.
Data are shown as mean ± SD. Error bars represent ± SD.
*p < 0.05, **p < 0.01, ***p < 0.001 and ****p < 0.0001. Significant difference compared with respective control by Student’s t test or one-way ANOVA followed by Dunnett’s test.

COX2 = target: T1, COX2 (Homo sapiens, UniProt P35354); assay: Enzyme assay (in vitro pharmacology); format: biochemical; conditions: 10 μM
T1 construct: purchased Eurofins Discovery
Protocol: (§1) The compound SU056 was tested for its radioligand binding and enzyme and uptake characteristics by Eurofins lab services (Eurofins discovery). The screening was performed at 10 μM of SU056. The binding was calculated as % inhibition of the binding of a radioactively labeled ligand specific to each target. The SU056 enzyme inhibition effect was determined as % inhibition of control enzyme activity.

PDE4D2 = target: T2, PDE4D2 (Homo sapiens, UniProt Q08499); assay: Enzyme assay (in vitro pharmacology); format: biochemical; conditions: 10 μM
T2 construct: purchased Eurofins Discovery
Protocol: as §1

YB-1 = YB-1 (Homo sapiens, UniProt P67809); assay: Cellular thermal shift assay (CETSA); format: binding; design: endogenous in cells; host or cells: MDA-MB-231; conditions: MDA-MB-231 cells, 1.5 h
Protocol: MDA-MB-231 cells treated with vehicle control (DMSO) or SU056 were analyzed by CETSA.[53] Cells were grown to 70–80% confluency and then treated with either DMSO (vehicle control) or SU056 (1 μM) for 1.5 h. Cells were then washed twice with PBS and divided into 10 PCR tubes (1 x 10^6 cells/tube in 100 μL PBS). The tubes incubated at different temperatures (37, 41, 44, 47, 50, 53, 56, 59, 63, 67°C) for 3 min in a thermal cycler, followed by 2 min at room temperature. The tubes were snap-frozen in liquid nitrogen, the cells were lysed using a freeze/thaw cycle, and the soluble and insoluble fractions were separated by centrifugation at 14,000 RPM for 30 min at 4°C. […] All samples were analyzed by LC-MS/MS in triplicate.
A Dionex Ultimate Rapid Separation Liquid Chromatography system (Thermo Fisher Scientific) was used to load 3 μL of the combined TMT-labeled peptides onto a PepMap C18 trap column (Thermo Fisher Scientific) with a flow rate set at 5 μL/min for 10 min. […] The flow rate throughout the gradient was set to 0.3 μL/min and each sample was analyzed in triplicates. Eluted peptides were analyzed using an Orbitrap Eclipse Tribrid mass spectrometer (Thermo Fisher Scientific). […] The most abundant precursor ions were subject to collision induced dissociation (CID) with a collisional energy set to […] and detected in the ion trap using Turbo scan rate. […]

For `O=C1OCC2=C1C(c1cccc(F)c1)c1cc3c(cc1N2CCO)OCO3` (centres unmarked) [SU056, 9-(3-fluorophenyl)-5-(2-hydroxyethyl)-6,9-dihydro-[1,3]dioxolo[4,5-g]furo[3,4-b]quinolin-8(5H)-one], the “decrease in lung metastasis compared to control” value (4T1 lung metastasis) was 65.5%, the enzyme activity (COX2) was “inhibits” and the enzyme activity (PDE4D2) was “inhibits”. The “stability of translation-associated proteins (eIFs, RPL, RPS)” value (YB-1; 1 μM) was “increased the overall stability” and the ΔTm at 1 µM (YB-1) was 13.8 °C.
